Values quoted from earlier work in patent US20170100348A1, “Treatment Regime for Chronic Sinusitis” (priority 2015, published 2017).

Tests used:
[1] = system: Pseudomonas aeruginosa; conditions: bacteria and phenolic compound incubated together on a plate
[2] = system: microbial organisms; conditions: background statement
[3] = system: Pseudomonas aerunginosa; conditions: background statement, FIG. 1
[4] = system: streptococcus mutans
[5] = system: fungi

| Compound | biofilm formation compared to the control [1] | bacteriocidal concentration [2] | bacteriostatic concentration [2] | concentration with activity against Pseudomonas aerunginosa [3] | preventing biofilm formation [4] | fungicidal concentration [5] |
| --- | --- | --- | --- | --- | --- | --- |
| O=C(O[C@@H]1Cc2c(O)cc(O)cc2O[C@@H]1c1cc(O)c(O)c(O)c1)c1cc(O)c(O)c(O)c1 [epigallocatechin gallate] | significant reduction in formation of biofilm | – | – | – | – | – |
| Oc1ccccc1 [Phenol] | significant reduction in formation of biofilm | 0.04-1.0% | greater than 0.02% | 0.5-1.0% | effective | greater than 1.3% |
| O=C(OC[C@H]1O[C@@H](OC(=O)c2cc(O)c(O)c(OC(=O)c3cc(O)c(O)c(O)c3)c2)[C@H](OC(=O)c2cc(O)c(O)c(OC(=O)c3cc(O)c(O)c(O)c3)c2)[C@@H](OC(=O)c2cc(O)c(O)c(OC(=O)c3cc(O)c(O)c(O)c3)c2)[C@@H]1OC(=O)c1cc(O)c(O)c(OC(=O)c2cc(O)c(O)c(O)c2)c1)c1cc(O)c(O)c(OC(=O)c2cc(O)c(O)c(O)c2)c1 [tannic acid] | significant reduction in formation of biofilm | – | – | – | – | – |
| Catechin | significant reduction in formation of biofilm | – | – | – | – | – |
